From patent publication US20210052580A1 (ST IP Holding AG, priority 2018, published 2021)
In brackets after ≈: the same amount, converted by molar mass. Where two headings read alike, the source gives them in different places.

Columns and labels:
[1] = tested on: primary human gingival epithelial cells (HGEPp); test: TACS MTT cell viability assay, H2O2-induced oxidative stress; assay type: cell-based
Experimental: Pooled primary HGEPps were propagated in CnT-Prime epithelial culture medium provided by CellnTec on 100 mm petri dishes coated with 30 mg/ml Type I rat tail collagen (BD Biosciences) diluted in Dulbecco's phosphate-buffered saline (DPBS). […] The cells were harvested when they reached 70-90% confluency as observed by light microscopy. For routine cultivation, the medium was changed every 3 days. For both the cell viability and ROS assays, the cells from passages 3-7 were seeded at 5×10 3, 2.5×10 4, 5×10^4 cells/cm 2 density to grow cell monolayers in 24-well flat-bottomed tissue culture plates and acclimated overnight at 37° C.
Preparation of Dosing Solutions • 1. Recrystallized oltipraz was received as a powder from Supportive Therapeutics and a 100 mM DMSO stock was prepared. Further dilutions were prepared in DMSO from the 100 mM DMSO stock and each DMSO dilution was then added into 10 mL of Dulbecco's phosphate-buffered saline to arrive at final concentrations of 10, 50, and 100 μM. • 2. The Normal (Control) group contained saline with the same percentage of DMSO as the treated group. • 3. All dosing solutions contained 0.3% of DMSO which is well below the maximum tolerated DMSO percent of 0.8% for HGEPp cells. • 4. Formulated oltipraz crystals and control powder were received as a powder and a 500 mM DMSO stock solution was prepared for each powder. • 5.
Cell Survival Assay (TACS MTT Kit) • 1. Plate cell concentration was selected to be 6.25×10^5/ml to yield an OD absorbance within the linear portion of the control curve. • 2. Once the HGEPp cells were cultured and ready on the microplate, the media was removed from all the wells and discarded. The cells were washed gently with DPBS 2-3 times and the last wash removed and discarded. • 3. Added 10 ul of MTT reagent to each well. • 4. Incubated the plate for 6 hours at 37° C. Viewed the cells to confirm the appearance of intracellular precipitate using an inverted microscope. • 5. Added 100 ul of Detergent Reagent to all wells, including the control wells taking care not to shake the plates • 6. Left the plate covered in the dark at room temperature overnight. • 7. Removed the plate cover and measured the absorbance of the wells, including the blanks at 570 nm. • 8. Determined the average values from triplicate readings after subtracting the average value for the blanks.
HGEPp cells were exposed to different concentrations of H2O2 for 4 h to examine H2O2-induced oxidative stress. The cells were exposed to 0-0.6 mM H2O2 for 4 h and cell viability was evaluated using the TACS MTT Cell Proliferation Assay Kit. The percentage of cell survival was determined using the ratio of the optical density (OD) of the test sample to the OD of the control×100%. […] The data is mean+/−SD of 3 experiments in 6 replicate wells.
Normal control cells were cultured in DPBS containing 0.3% DMSO. Positive Control (PC): oxidative stressed group cells after treatment with 0.3 mM H2O2 for 4 h. […] The percentage of cell survival was determined by the ratio of the optical density (OD) of the test samples to the OD of the control×100%.
Pooled primary HGEPp's were propagated in CnT-Prime epithelial culture medium provided by CellnTec on 100 mm petri dishes coated with 30 mg/ml Type I rat tail collagen (BD Biosciences) diluted in Dulbecco's phosphate-buffered saline (DPBS). […] The cells were harvested when they reached 70-90% confluency as observed by light microscopy. For routine cultivation, the medium was changed every 3 days.

[2] = tested on: primary human gingival epithelial cells (HGEPp); test: OxiSelect intracellular ROS assay, H2O2-treated cells; assay type: cell-based
Description: 2. measure the effect of recrystallized oltipraz and formulated oltipraz on hydroxyl, peroxyl and other reactive oxygen species within HGEPp cells, using Cell Biolabs' OxiSelect™ Intracellular ROS Assay Kit. This assay employs the cell-permeable fluorogenic probe 2′,7′-dichlorodihydrofluorescin diacetate (DCFH-DA) which diffuses into cells and is deacetylated by cellular esterases to a nonfluorescent DCFH which is then rapidly oxidized to highly fluorescent 2′,7′-dichlorodihydrofluorescein (DCF) by ROS.
Prepared and mixed all reagents thoroughly before use. […] Once the HGEPp cells were cultured and ready on a microplate, the media was removed from all the wells and discarded. Washed the cells gently with DPBS 2-3 times. Removed the last wash and discarded it. • 3. Added 100 μL of 1×DCFH-DA/media solution to the cells. […] Fluorescence was read on a Fluorescence Plate Reader after 1 hour. […] Transferred 150 μL of the mixture to a fresh 24-well plate for fluorescence measurements at 530 nm. […]
Intracellular ROS was measured using a Spectramax M3 microplate reader.
Prepared and mixed all reagents thoroughly before use. […] Once the HGEPp cells were cultured and ready on a microplate, the media was removed from all the wells and discarded. […] Transferred 150 μL of the mixture to a fresh 24-well plate for fluorescence measurements at 530 nm.
Intracellular ROS was measured using a Spectramax M3 microplate reader. […]

[3] = physchem; details: 20 °C, thermodynamic from solid
[4] = tested on: male Syrian Golden Hamsters
Experimental: Twenty-four (24) male Syrian Golden Hamsters were used in the study. Mucositis was induced by giving an acute radiation dose of 40 Gy directed to the left buccal cheek pouch on Day 0. Mucositis was evaluated clinically starting on Day 6 and continuing on alternate days until Day 28.
Mucositis was scored visually by comparison to a validated photographic scale, ranging from 0 for normal, to 5 for severe ulceration (clinical scoring). In descriptive terms, this scale is defined as described in Table 7 below: […]
A mucositis score of 3 or greater indicates ulcerative mucositis, a clinically significant threshold.
Statistical significance of observed differences was calculated using chi-squared analysis.
An analysis of the severity of mucositis was performed using the Mann-Whitney rank sum analysis to compare the visual mucositis scores for Groups 2 and 3 to the vehicle control group (Group 1) on each day of the analysis. In this analysis, 2 consecutive days of significant reduction in the mucositis score are generally required before it is regarded as clinically meaningful.
The significance of group differences observed in daily mucositis scores was determined using the Mann-Whitney rank sum test. This nonparametric statistic is appropriate for the visual mucositis scoring scale. The p-values for each calculation are shown. “x” denotes significant difference in mucositis scores. “y” denotes increase in comparison to vehicle Group (improvement). “z” denotes decrease.
“y” denotes an increase in comparison to vehicle Group, “z” denotes decrease (improvement).

[5] = tested on: rat cortical neurons; assay type: cell-based; details: MK801 10 μM
Experimental: The objective of the experiments in this Example was to explore the protective effects of three compounds in the neurotoxicity induced by oxygen glucose deprivation. A multiparametric cell-based protocol is used in this Example in order to determine the mechanisms of action. The assay was applied to “freshly isolated” rat cortical neurons cultured in 96-well-plates and exposed to the compounds at 100 μg/ml. Moreover, some cells were treated with the compounds in addition with atovaquone (100 μg/ml).
In vitro ischemic injury was induced in rat primary neuronal culture by oxygen-glucose deprivation for 2 hours. Neurons were incubated with the compounds during 1 hour eighteen hours prior to the OGD induction. MK801 10 μM was used as positive neuroprotection control. After the treatments, supernatants were collected for measuring extracellular LDH levels (plasma membrane integrity determination) and cells were simultaneously incubated with three optically compatible fluorescent dyes, and subsequently analyzed with BD Pathway 855 (Becton Dickinson). Cell parameters associated with nuclear morphology, mitochondrial damage and caspase 3/7 activation-indicative of prelethal cytotoxic effects and representative of different mechanism of toxicity-were measured by HCS at single cell level. Finally, cells were fixed and stained with beta III tubulin antibody for measuring the neurite outgrowth.
Primary cultures of cortical neurons were isolated from cerebral cortices of Sprague-Dawley rat foetuses at embryonic day 18. Brains were removed and after removing the meninges, the tissues were dissected under a binocular microscope. Neurons were enzymatically dispersed by trypsin 0.2% and DNAse […] digestion for 10 min at 37° C., plated in poly-L-lysine wells and incubated with B27 supplemented neurobasal medium.
Cortical neurons of 18 days old embryonic rats were plated in poly-l-lysine coated 96-well plates (30.000 cells per well). Cells were maintained in neurobasal medium supplemented with B-27 component for 5 days at 37° C. in a humidified 5% CO2 atmosphere. At day 5, cells were subjected to oxygen glucose deprivation (OGD) for 2 hours at 37° C. The cultures were placed in an aerobic chamber (Billops-Rothenberg) and incubated in neurobasal medium lacking glucose and B27 factor, and aerated with an anaerobic gas mixture (94.7% N2, 5% CO2, 0.3% O2) to remove residual oxygen. Control cultures were kept in the original neurobasal medium but were submitted to the anaerobic conditions. At the end of the OGD conditions, the cells were removed from the anaerobic chamber, the OGD medium was replaced with neurobasal medium containing glucose, and the cells were incubated for an additional 24 h. The test compounds were added to the neurons eighteen hours prior to the OGD induction and maintained for 1 h. Replicate cultures were treated as described above with MK801 as positive control of neuroprotection.
Compound neuroprotective potential was determined by HCS analysis, which included the following endpoints: plasma membrane integrity, cell viability, alterations of mitochondrial membrane potential, caspase 3/7 activation and neurite outgrowth.
(§1) To determine the integrity of the plasma membrane, supernatants were collected 24 h after treatments and LDH assay was performed following manufacturer's instructions.
(§2) Cell number was determined by hoechst 33342 nucleic acid staining. This dye allows a sensitive cell number determination by fluorescence microscopy. Cells were stained with 5 μg/ml, washed 3 times and measured at 380 nm/460 nm Ex/Em.
Mitochondrial activity was determined using TMRM, a lipophilic cationic fluorescent probe that freely crosses the plasma membrane and accumulates within mitochondria, depending on their membrane potential. Cells were stained with 50 nM tetramethyl rhodamine methyl ester-TMRM, washed 3 times and measured at 555 nm/645 nm Ex/Em. TMRM fluorescence intensity in cytosolic regions around the nucleus was registered. […]

[6] = tested on: mouse cardiomyocytes; assay type: cell-based; details: NAC 100 μM
Experimental: In vitro ischemic injury was induced in mouse neonatal primary cardiomyocyte culture by oxygen-glucose deprivation for 18 hours. Cardiomyocytes were incubated with two concentrations of the compounds during 4 hours prior to the OGD induction. The test compounds were also present during the OGD insult and 24 h-recovery period. NAC was used as positive control of cardioprotection. After treatments, cell viability was measured with WST-8 and ATP, and supernatants were collected to measure LDH for studying plasma membrane integrity. Cells were simultaneously loaded with two fluorescent dyes showing optical compatibility, and were then analyzed with BD Pathway 855 (Becton Dickinson). By using the technology of HCS, cell parameters associated with nuclear morphology and caspase 3/7 activation (indicative of pre-lethal cytotoxic effects and representative of different mechanism of toxicity) were measured at the single cells level, which allows high-throughput screening. Data were expressed as means±SD of three separate wells and individual comparisons were made with Student's test (SigmaPlot 9.0 program).
Primary cultures of cardiomyocytes were prepared from the hearts of Swiss mouse neonates P0-P2. Hearts were removed and enzymatically dissociated following instructions from Neonatal heart Dissociation Kit of Miltenyi Biotec. Then cardiomyocytes were isolated following also the instructions of Miltenyi biotec. Briefly, cells were isolated by depletion of non-target cells. Non-target cells (fibroblasts and endothelial cells) are directly magnetically labeled with a cocktail of monoclonal antibodies conjugated with MACS microbeads. The magnetically labeled non-target cells were depleted by retaining them within an MCS column in the magnetic fields of a MACS separator, while the unlabeled cardiomyocytes passed through the column. Then, cardiomyocytes were counted and plated on fibronectin-coated wells with cardiac myocyte complete medium (1% CMGS component, 1% penicillin/streplomycina and 5% FBS).
Cardiomyocytes from P0-P2 days mice were plated in fibronectin coated 96-well plates with a number of 30.000 cells per well. Cells were maintained in cardiac myocyte complete medium (Cardiac myocyte medium, growth factors, 5% FBS, 1% penicillin/streptomycin) for 1 day at 37° C. in a humidified 5% CO2 atmosphere. At day 2, cells were washed and treated with compounds in complete medium 4 h prior to being subjected to oxygen glucose deprivation for 18 hours at 37° C. The cultures were placed in an aerobic chamber (Billops-Rothenberg) and incubated with DMEM medium lacking glucose and growth factors, and aerated with an anaerobic gas mix (94.7% N2, 5% CO2, 0.3% O2) to remove residual oxygen. Control cells were kept in the original cardiac myocyte medium but under anaerobic conditions. At the end of the OGD insult the cells were removed from the anaerobic chamber, the OGD medium was replaced with cardiac myocyte medium containing glucose without growth factors, and the cells were incubated for additional 24 h. The test compounds were also present during the OGD insult and the recovery period. Some cells were treated as described above with NAC 100 μM as positive control of cardioprotection.
as §1, §2
Caspase 3/7 activation was determined using The CellEvent® Caspase-3n Green Detection Reagent which is intrinsically a non-fluorescent peptide that inhibits the ability of the dye to bind to DNA. However, after […] activation in apoptotic cells, the peptide is cleaved allowing the dye to bind to DNA producing a bright, fluorogenic response. […]

[7] = entire study duration, of 192 animal days
[8] = Examples 10, 11, 12.5-800 μg/mL, procedure of Example 9

O=C1C(O)=C([C@H]2CC[C@H](c3ccc(Cl)cc3)CC2)C(=O)c2ccccc21 [Atovaquone, trans-2-[4-(4-chlorophenyl)cyclohexyl]-3-hydroxy-1,4-naphthalenedione]
effect on proliferation/survival of H2O2-induced oxidatively stressed HGEPp cells ([1]; Example 9, all doses tested 12.5-800 μg/mL (each), 24 hr pretreatment, 0.3 mM H2O2 4 h): no impact
effect on ROS levels in H2O2 challenged HGEPp cells ([2]; Example 9, 50, 100, 200 μg/mL, 24 hr pretreatment): does not change ROS levels

Cc1c(-c2cnccn2)ssc1=S [Neat oltipraz, 4-methyl-5-(pyrazin-2-yl)-3H-1,2-dithiole-3-thione]
solubility ([3]; 2% simulated intestinal fluid, fassgf or other biorelevant): 15.8 µg/mL (≈ 69.8 µM)
solubility ([3]; water): 3.1 µg/mL (≈ 13.7 µM)
effect on H2O2-induced decrease in HGEPp survival ([1]; Example 7, 50 to 800 μg/ml, 24 h pretreatment, then 0.3 mM H2O2 4 h): promoted cell proliferation and reduced H2O2-induced decrease in HGEPp survival
effect on ROS levels in H2O2 treated HGEPp cells ([2]; Example 7, 100 ug/ml and 200 ug/ml, 24 h pretreatment, P<0.05 versus PC): significantly reduced ROS levels
day of peak mean mucositis score ([4]; 40 Gy Day 0, 5 mg/mL, 0.2 mL topical BID, Days −3 to 28): 16 days
peak mean mucositis score ([4]; 40 Gy Day 0, 5 mg/mL, 0.2 mL topical to left cheek pouch BID, Days −3 to 28): 3.25±0.11
Percent Ulceration by Day (Score ≥3) ([4]; Day 6): 0.0%
Percent Ulceration by Day (Score ≥3) ([4]; Day 8): 0.0%
Percent Ulceration by Day (Score ≥3) ([4]; Day 10): 0.0%
Percent Ulceration by Day (Score ≥3) ([4]; Day 12): 50.0%
Percent Ulceration by Day (Score ≥3) ([4]; Day 14): 100.0%
Percent Ulceration by Day (Score ≥3) ([4]; Day 16): 100.0%
Percent Ulceration by Day (Score ≥3) ([4]; Day 18): 100.0%
Percent Ulceration by Day (Score ≥3) ([4]; Day 20): 100.0%
Percent Ulceration by Day (Score ≥3) ([4]; Day 22): 100.0%
Percent Ulceration by Day (Score ≥3) ([4]; Day 24): 50.0%
Percent Ulceration by Day (Score ≥3) ([4]; Day 26): 25.0%
Percent Ulceration by Day (Score ≥3) ([4]; Day 28): 25.0%
% Days ≥3 ([4]; entire study duration): 54.17%
Days <3 (animal days with mucositis score <3) [4, 7]: 88
Days ≥3 (animal days with mucositis score ≥3) [4, 7]: 104

COc1ccc2cc3[n+](cc2c1OC)CCc1cc2c(cc1-3)OCO2 [Berberine]
effect on proliferation/survival of H2O2-induced oxidatively stressed HGEPp cells [1, 8]: little or no impact

CN(C)C(=N)N=C(N)N [Metformin]
effect on proliferation/survival of H2O2-induced oxidatively stressed HGEPp cells [1, 8]: little or no impact

C[C@]12N[C@H](Cc3ccccc31)c1ccccc12 [MK801]
normalization of plasma membrane integrity (LDH release) [5]: 33%
prevention of OGD-induced apoptosis (caspase 3/7 activation) ([5]; 24 h after OGD): 25%
prevention of OGD-induced mortality (cell number, hoechst 33342) ([5]; 24 h after OGD): 26%
re-establishment of mitochondrial membrane potential (TMRM) ([5]; 24 hours post-exposure): 13%
re-establishment of neurite outgrowth affected by OGD ([5]; average length, beta III tubulin): 94%
CASPASE score ([5]; Table 16): 1 (1 (variation 20-40%))
HOECHST score (cell number) ([5]; Table 16): 1 (1 (variation 20-40%))
LDH score ([5]; Table 16): 1 (1 (variation 20-40%))
Neurite score ([5]; Table 16): 3 (3 (variation 60-100%))
Neuroprotection degree ([5]; Table 16): moderate (moderate (5-7))
TMRM score ([5]; Table 16): 0 (0 (no neuroprotection or variation lower than 20%))
Total (sum of individual scores) ([5]; Table 16): 6

OO [H2O2, hydrogen peroxide]
reduction in cell number ([1]; 0.3 mM H2O2, 4 h): 48%

CC(=O)N[C@@H](CS)C(=O)O [NAC]
normalization of OGD-induced LDH release [6]: 26%
prevention of OGD-induced apoptosis (caspase 3/7) [6]: 31%
protection against OGD-induced reduction in ATP levels [6]: 21%
prevention of OGD-induced mortality (cell number) ([6]; 24 h after exposure): 21%
ATP score ([6]; Table 18): 1 (1 (variation 20-40%))
CASPASE score ([6]; Table 18): 1 (1 (variation 20-40%))
HOECHST score (cell number) ([6]; Table 18): 1 (1 (variation 20-40%))
LDH score ([6]; Table 18): 1 (1 (variation 20-40%))
Neuroprotection degree ([6]; Table 18): Moderate
Total (sum of individual scores) ([6]; Table 18): 4
